In ChEMBL document CHEMBL4316588, “Design, Synthesis, and Biological Evaluation of Novel DNA Gyrase-Inhibiting Spiropyrimidinetriones as Potent Antibiotics for Treatment of Infections Caused by Multidrug-Resistant Gram-Positive Bacteria” (J Med Chem, 2019):
Values after ≈ are worked out from the molar mass of the structure shown. Active and inactive are the calls of the source. The calls are words filed in the database; no cut-off is given here.

Assays:
Assay type in all cases: functional
Streptococcus pneumoniae = experiment: Antibacterial activity against penicillin-resistant Streptococcus pneumoniae after 18 to 20 hrs by CLSI-protocol based broth microdilution method
Streptococcus pyogenes = experiment: Antibacterial activity against Streptococcus pyogenes after 18 to 20 hrs by CLSI-protocol based broth microdilution method
[1] = test system: Staphylococcus epidermidis; experiment: Antibacterial activity against methicillin-sensitive Staphylococcus epidermidis after 18 to 20 hrs by CLSI-protocol based broth microdilution method
Staphylococcus aureus [2] = experiment: Antibacterial activity against methicillin-resistant Staphylococcus aureus after 18 to 20 hrs by CLSI-protocol based broth microdilution method
Staphylococcus aureus [3] = experiment: Antibacterial activity against methicillin-sensitive Staphylococcus aureus after 18 to 20 hrs by CLSI-protocol based broth microdilution method
[4] = test system: Staphylococcus epidermidis; experiment: Antibacterial activity against methicillin-resistant Staphylococcus epidermidis after 18 to 20 hrs by CLSI-protocol based broth microdilution method
[5] = Streptococcus pyogenes, read-out: MIC
[6] = Staphylococcus aureus, read-out: MIC

| Structure (SMILES) | MIC (Streptococcus pneumoniae) | MIC (Streptococcus pyogenes) | MIC [1] | MIC (Staphylococcus aureus [2]) | MIC (Staphylococcus aureus [3]) | MIC [4] | MIC (Streptococcus pyogenes; [5]) [µg/mL] | MIC (Staphylococcus aureus [3]; [6]) [µg/mL] |
| --- | --- | --- | --- | --- | --- | --- | --- | --- |
| C[C@@H]1CN2c3c(cc4c(N5CCOCC5)ncnc4c3F)CC3(C(=O)NC(=O)NC3=O)[C@H]2[C@H](C)O1 (racemic) | inactive | inactive | inactive | inactive | inactive | inactive |  |  |
| CC[C@H]1CSC(=O)N1c1noc2c(F)c3c(cc12)CC1(C(=O)NC(=O)NC1=O)[C@H]1[C@H](C)O[C@H](C)CN31 | 0.5 to 1 µg/mL (≈ 0.966 to 1.93 µM) |  | 0.5 to 1 µg/mL (≈ 0.966 to 1.93 µM) | 0.5 to 1 µg/mL (≈ 0.966 to 1.93 µM) |  | 0.25 to 0.5 µg/mL (≈ 0.483 to 0.966 µM) | 0.5 to 1 (≈ 0.966 to 1.93 µM) | 0.25 to 0.5 (≈ 0.483 to 0.966 µM) |
| C[C@@H]1CN2c3c(cc4c(N5C(=O)SC[C@H]5C)noc4c3F)CC3(C(=O)NC(=O)NC3=O)[C@H]2[C@H](C)O1 | 0.25 to 1 µg/mL (≈ 0.497 to 1.99 µM) |  | 0.03 to 0.125 µg/mL (≈ 0.0596 to 0.248 µM) | 0.03 to 0.5 µg/mL (≈ 0.0596 to 0.993 µM) |  | 0.03 to 0.125 µg/mL (≈ 0.0596 to 0.248 µM) | 0.125 to 0.25 (≈ 0.248 to 0.497 µM) | 0.25 to 0.5 (≈ 0.497 to 0.993 µM) |
| C[C@@H]1CN2c3c(cc4c(N5CCOCC5=O)ncnc4c3F)CC3(C(=O)NC(=O)NC3=O)[C@H]2[C@H](C)O1 (racemic) | inactive | inactive | inactive | inactive | inactive | inactive |  |  |
| C[C@@H]1CN(c2noc3c(C#N)c4c(cc23)CC2(C(=O)NC(=O)NC2=O)[C@H]2[C@H](C)O[C@H](C)CN42)C(=O)O1 | 4 to 8 µg/mL (≈ 8.09 to 16.2 µM) |  | 1 to 2 µg/mL (≈ 2.02 to 4.04 µM) | 0.25 to 8 µg/mL (≈ 0.506 to 16.2 µM) |  | 2 µg/mL (≈ 4.04 µM) | 4 to 8 (≈ 8.09 to 16.2 µM) | 2 to 8 (≈ 4.04 to 16.2 µM) |
| C[C@@H]1CN2c3c(cc4c(N5C(=O)OCC5(C)C)noc4c3F)CC3(C(=O)NC(=O)NC3=O)[C@H]2[C@H](C)O1 (racemic) | 16 µg/mL (≈ 31.9 µM) |  | 16 µg/mL (≈ 31.9 µM) | 16 µg/mL (≈ 31.9 µM) |  | 16 µg/mL (≈ 31.9 µM) | 16 (≈ 31.9 µM) | 16 (≈ 31.9 µM) |
| C[C@@H]1CN2c3c(cc4c(N5CCSCC5)ncnc4c3F)CC3(C(=O)NC(=O)NC3=O)[C@H]2[C@H](C)O1 (racemic) | inactive | inactive | inactive | inactive | inactive | inactive |  |  |
| C[C@@H]1CN2c3c(cc4c(N5C(=O)OC[C@@H]5C)noc4c3F)CC3(C(=O)NC(=S)NC3=O)[C@H]2[C@H](C)O1 | inactive | inactive | inactive | inactive | inactive | inactive |  |  |
| C[C@@H]1CN2c3c(cc4c(N5C[C@H](CN=[N+]=[N-])SC5=O)noc4c3F)CC3(C(=O)NC(=O)NC3=O)[C@H]2[C@H](C)O1 | 0.125 µg/mL (≈ 0.23 µM) |  | 0.03 to 0.25 µg/mL (≈ 0.0551 to 0.459 µM) | 0.25 to 0.5 µg/mL (≈ 0.459 to 0.918 µM) |  | 0.03 to 0.125 µg/mL (≈ 0.0551 to 0.23 µM) | 0.125 to 1 (≈ 0.23 to 1.84 µM) | 0.06 to 0.25 (≈ 0.11 to 0.459 µM) |
| C[C@@H]1CN2c3c(cc4c(N5CC6(CC6)OC5=O)noc4c3F)CC3(C(=O)NC(=O)NC3=O)[C@H]2[C@H](C)O1 (racemic) | ≤ 0.03 µg/mL |  | ≤ 0.03 µg/mL | 0.03 to 0.125 µg/mL (≈ 0.0601 to 0.25 µM) | <0.03 µg/mL | ≤ 0.03 µg/mL | ≤ 0.03 |  |
| C[C@@H]1CN2c3c(cc4c(N5C(=O)OCC56CC6)noc4c3F)CC3(C(=O)NC(=O)NC3=O)[C@H]2[C@H](C)O1 (racemic) | 2 µg/mL (≈ 4 µM) |  | 1 to 2 µg/mL (≈ 2 to 4 µM) | 1 to 4 µg/mL (≈ 2 to 8.01 µM) |  | 0.5 to 2 µg/mL (≈ 1 to 4 µM) | 1 to 2 (≈ 2 to 4 µM) | 1 (≈ 2 µM) |
| CC[C@@H]1CSC(=O)N1c1noc2c(F)c3c(cc12)CC1(C(=O)NC(=O)NC1=O)[C@H]1[C@H](C)O[C@H](C)CN31 | 2 µg/mL (≈ 3.86 µM) |  | 1 µg/mL (≈ 1.93 µM) | 0.5 to 2 µg/mL (≈ 0.966 to 3.86 µM) |  | 0.25 to 2 µg/mL (≈ 0.483 to 3.86 µM) | 4 (≈ 7.73 µM) | 0.5 to 1 (≈ 0.966 to 1.93 µM) |
| C[C@@H]1CN2c3c(cc4c(N5CC6(COC6)OC5=O)noc4c3F)CC3(C(=O)NC(=O)NC3=O)[C@H]2[C@H](C)O1 | 0.125 to 0.5 µg/mL (≈ 0.243 to 0.97 µM) |  | 0.03 to 0.125 µg/mL (≈ 0.0582 to 0.243 µM) | 0.03 to 1 µg/mL (≈ 0.0582 to 1.94 µM) |  | 0.03 to 0.25 µg/mL (≈ 0.0582 to 0.485 µM) | 0.125 to 0.25 (≈ 0.243 to 0.485 µM) | 0.125 to 0.25 (≈ 0.243 to 0.485 µM) |
| C[C@@H]1CN2c3c(cc4c(N5C(=O)S[C@@H]6CCCC[C@@H]65)noc4c3F)CC3(C(=O)NC(=O)NC3=O)[C@H]2[C@H](C)O1 | < 0.03 µg/mL |  | 0.25 to 0.5 µg/mL (≈ 0.46 to 0.92 µM) | 0.5 to 2 µg/mL (≈ 0.92 to 3.68 µM) |  | 0.125 to 0.5 µg/mL (≈ 0.23 to 0.92 µM) |  | 0.5 to 1 (≈ 0.92 to 1.84 µM) |
| C[C@@H]1CN2c3c(cc4c(N5C[C@H](CF)SC5=O)noc4c3F)CC3(C(=O)NC(=O)NC3=O)[C@H]2[C@H](C)O1 | 0.06 to 0.25 µg/mL (≈ 0.115 to 0.479 µM) |  | < 0.03 µg/mL |  |  |  |  | 0.06 to 0.125 (≈ 0.115 to 0.24 µM) |
| C[C@@H]1CN2c3c(cc4c(N5C[C@H](CS(C)(=O)=O)SC5=O)noc4c3F)CC3(C(=O)NC(=O)NC3=O)[C@H]2[C@H](C)O1 | 0.5 to 4 µg/mL (≈ 0.86 to 6.88 µM) |  | 0.25 to 1 µg/mL (≈ 0.43 to 1.72 µM) | 1 to 8 µg/mL (≈ 1.72 to 13.8 µM) |  | 0.25 to 1 µg/mL (≈ 0.43 to 1.72 µM) | 0.5 to 1 (≈ 0.86 to 1.72 µM) | 2 to 4 (≈ 3.44 to 6.88 µM) |
| C[C@@H]1CN2c3c(cc4c(N5CC6(CCCC6)OC5=O)noc4c3F)CC3(C(=O)NC(=O)NC3=O)[C@H]2[C@H](C)O1 | 0.25 to 1 µg/mL (≈ 0.474 to 1.9 µM) |  | 0.06 to 0.25 µg/mL (≈ 0.114 to 0.474 µM) | 0.06 to 1 µg/mL (≈ 0.114 to 1.9 µM) |  | 0.03 to 0.25 µg/mL (≈ 0.0569 to 0.474 µM) | 0.25 to 0.5 (≈ 0.474 to 0.948 µM) | 0.125 to 0.25 (≈ 0.237 to 0.474 µM) |
